This note sets out measurements from US6989448B2, “Heteroaryl alkyl alpha substituted peptidylamine calcium channel blockers” (priority 1998, dated 2006).

Where a name gives a salt, the structure may show the parent alone.

The target in one data set is T1, N-type Ca2+ channel (Homo sapiens, UniProt Q00975).
T1 construct: host or cells: IMR-32 cells, differentiated with dibutyryl cAMP and bromodeoxyuridine
Briefly: Measurement of N-type Ca2+ channel blocking potencies in IMR-32 cells using the fluorescent Ca2+ indicator Indo-1. It counts as cell-based. Conditions: for IMR-32 % of Blockade @ μM: 5 μM nitrendipine; for IC50: K+-stimulated Ca2+ flux, 5 μM nitrendipine to block L-type channels, some values marked (est.). The protocol: Measurement of N-type Ca^2+ Channel Blocking Potencies of Compounds in IMR-32 Cells Using the Fluorescent Ca^2+ Indicator Indo-1
IMR-32 cells are a human tumoral cell line of neural origin. […] Calcium flux into these cells may be induced by stimulation with elevated potassium concentrations. The L-channel component of calcium flux may be blocked by adding 5 μM nitrendipine. The remaining component of calcium entry into the IMR-32 cells is due to calcium flux through N-type calcium channels. Intracellular calcium concentrations are measured using the fluorescent calcium indicator Indo-1. The effect of drug concentration on calcium uptake is studied.
The IMR-32 cell line was obtained from the American Type Culture Collection (Rockville, Md.). Cells were grown in Eagle's Minimum Essential Medium with Earle's salts supplemented with 10% fetal bovine serum, 2 mM L-Gln and antibiotic/antimycotic mixture (Gibco). At approximately 80% confluency, differentiation was induced by the addition of 1 mM dibutyryl cAMP and 2.5 μM bromodeoxyuridine to the medium. After 7 to 13 days of differentiation, cells were detached using 0.5 mM EDTA and loaded with 5 μM Indo-1 acetoxymethyl ester (Molecular Probes, Eugene, Oreg.) at 30° C. for 45 minutes Loaded cells were washed twice, resuspended (˜10^7 cells/mL) in assay buffer (10 mM HEPES/Tris pH 7.4 in Hank's Balanced Salt Solution without bicarbonate or phenol red containing 0.5% bovine serum albumin) and kept on ice until use. Fluorescence measurements were carried out in a Photon Technology International (PTI, South Brunswick, N.J.) Model RF-F3004 spectrofluorometer with dual emission monochromators using excitation at 350 nm and emission at 400 and 490 nm. The instrument was equipped with a thermostated cuvette holder with stirring capabilities, as well as with a computer-controlled pump which allowed for reagent addition during measurement. Instrument control and data collection was done by PTI's OSCAR software running on an IBM compatible computer. Different concentrations of the test compounds (60 μL in dimethyl sulfoxide) were added to 5.94 mL of assay buffer containing approximately 3×10^6 loaded cells, and 5 μM nitrendipine (in 30 μL EtOH) to block L-type Ca^2+ channels. Samples were incubated for 10 minutes at 30° C. and then aliquoted into three 10×10 mm disposable acrylic cuvettes. Emission signals at 400 and 490 nm were acquired from each cuvette at 30° C. for 50 seconds. At 20 seconds after the start of reading, cells were depolarized by the addition of 160 μL of stimulation solution (1 M KCl, 68 mM CaCl2) to the cuvette via the computer-controlled pump. Ratio of dual emission signals (400 nm/490 nm), which is proportional to intracellular Ca^2+ concentration, was plotted against time, and the difference between maximal response after stimulation and basal value (before stimulation) was determined. Values obtained in this way were plotted as a function of drug concentration. IC50 values of test compounds were calculated by fitting a 4-parameter logistic function to the data using the least squares method.

The test system of another data set is DBA/2 mice. Briefly: Audiogenic (sound-induced) seizure test in DBA/2 mice, protection from tonic seizures. It counts as in vivo. Conditions: 30 mg/kg, intravenous, tested 15 or 45 minutes after injection. As to the method:
In Vivo Biological Protocol
A compound of the present invention was dissolved in water using 10% (weight/volume) Emulphor (GAF Corp., Wayne, N.J.) surfactant. Substances were administered by intravenous injection into the retro-orbital venous sinus. All testing was performed 15 minutes or 45 minutes after drug injection. All the male mice, 3 to 4 weeks old, were obtained from Jackson Laboratories, Bar Harbour, Me. Immediately before anticonvulsant testing, mice were placed upon a wire mesh, 4 inches square suspended from a steel rod. The square was slowly inverted through 180 degree and mice observed for 30 seconds. Any mouse falling from the wire mesh was scored as ataxia.
Mice were placed into an enclosed acrylic plastic chamber (21 cm height, approximately 30 cm diameter) with a high-frequency speaker (4 cm diameter) in the center of the top lid. An audio signal generator (Protek Model B-810) was used to produce a continuous sinusoidal tone that was swept linearly in frequency between 8 kHz and 16 kHz once each 10 msec. The average sound pressure level (SPL) during stimulation was approximately 100 dB at the floor of the chamber. Mice were placed within the chamber and allowed to acclimatize for 1 minute. DBA/2 mice in the vehicle-treated group responded to the sound stimulus (applied until tonic extension occurred, or for a maximum of 60 sec) with a characteristic seizure sequence consisting of wild running followed by clonic seizures, and later by tonic extension, and finally by respiratory arrest and death in 80% or more of the mice. In vehicle-treated mice, the entire sequence of seizures to respiratory arrest lasts approximately 15 to 20 seconds.
The incidence of all the seizure phases in the drug-treated and vehicle-treated mice was recorded, and the occurrence of tonic seizures were used for calculating anticonvulsant ED50 values by probit analysis. Mice were used only once for testing at each time and dose point.

T1 sequence (Q00975 whole entry): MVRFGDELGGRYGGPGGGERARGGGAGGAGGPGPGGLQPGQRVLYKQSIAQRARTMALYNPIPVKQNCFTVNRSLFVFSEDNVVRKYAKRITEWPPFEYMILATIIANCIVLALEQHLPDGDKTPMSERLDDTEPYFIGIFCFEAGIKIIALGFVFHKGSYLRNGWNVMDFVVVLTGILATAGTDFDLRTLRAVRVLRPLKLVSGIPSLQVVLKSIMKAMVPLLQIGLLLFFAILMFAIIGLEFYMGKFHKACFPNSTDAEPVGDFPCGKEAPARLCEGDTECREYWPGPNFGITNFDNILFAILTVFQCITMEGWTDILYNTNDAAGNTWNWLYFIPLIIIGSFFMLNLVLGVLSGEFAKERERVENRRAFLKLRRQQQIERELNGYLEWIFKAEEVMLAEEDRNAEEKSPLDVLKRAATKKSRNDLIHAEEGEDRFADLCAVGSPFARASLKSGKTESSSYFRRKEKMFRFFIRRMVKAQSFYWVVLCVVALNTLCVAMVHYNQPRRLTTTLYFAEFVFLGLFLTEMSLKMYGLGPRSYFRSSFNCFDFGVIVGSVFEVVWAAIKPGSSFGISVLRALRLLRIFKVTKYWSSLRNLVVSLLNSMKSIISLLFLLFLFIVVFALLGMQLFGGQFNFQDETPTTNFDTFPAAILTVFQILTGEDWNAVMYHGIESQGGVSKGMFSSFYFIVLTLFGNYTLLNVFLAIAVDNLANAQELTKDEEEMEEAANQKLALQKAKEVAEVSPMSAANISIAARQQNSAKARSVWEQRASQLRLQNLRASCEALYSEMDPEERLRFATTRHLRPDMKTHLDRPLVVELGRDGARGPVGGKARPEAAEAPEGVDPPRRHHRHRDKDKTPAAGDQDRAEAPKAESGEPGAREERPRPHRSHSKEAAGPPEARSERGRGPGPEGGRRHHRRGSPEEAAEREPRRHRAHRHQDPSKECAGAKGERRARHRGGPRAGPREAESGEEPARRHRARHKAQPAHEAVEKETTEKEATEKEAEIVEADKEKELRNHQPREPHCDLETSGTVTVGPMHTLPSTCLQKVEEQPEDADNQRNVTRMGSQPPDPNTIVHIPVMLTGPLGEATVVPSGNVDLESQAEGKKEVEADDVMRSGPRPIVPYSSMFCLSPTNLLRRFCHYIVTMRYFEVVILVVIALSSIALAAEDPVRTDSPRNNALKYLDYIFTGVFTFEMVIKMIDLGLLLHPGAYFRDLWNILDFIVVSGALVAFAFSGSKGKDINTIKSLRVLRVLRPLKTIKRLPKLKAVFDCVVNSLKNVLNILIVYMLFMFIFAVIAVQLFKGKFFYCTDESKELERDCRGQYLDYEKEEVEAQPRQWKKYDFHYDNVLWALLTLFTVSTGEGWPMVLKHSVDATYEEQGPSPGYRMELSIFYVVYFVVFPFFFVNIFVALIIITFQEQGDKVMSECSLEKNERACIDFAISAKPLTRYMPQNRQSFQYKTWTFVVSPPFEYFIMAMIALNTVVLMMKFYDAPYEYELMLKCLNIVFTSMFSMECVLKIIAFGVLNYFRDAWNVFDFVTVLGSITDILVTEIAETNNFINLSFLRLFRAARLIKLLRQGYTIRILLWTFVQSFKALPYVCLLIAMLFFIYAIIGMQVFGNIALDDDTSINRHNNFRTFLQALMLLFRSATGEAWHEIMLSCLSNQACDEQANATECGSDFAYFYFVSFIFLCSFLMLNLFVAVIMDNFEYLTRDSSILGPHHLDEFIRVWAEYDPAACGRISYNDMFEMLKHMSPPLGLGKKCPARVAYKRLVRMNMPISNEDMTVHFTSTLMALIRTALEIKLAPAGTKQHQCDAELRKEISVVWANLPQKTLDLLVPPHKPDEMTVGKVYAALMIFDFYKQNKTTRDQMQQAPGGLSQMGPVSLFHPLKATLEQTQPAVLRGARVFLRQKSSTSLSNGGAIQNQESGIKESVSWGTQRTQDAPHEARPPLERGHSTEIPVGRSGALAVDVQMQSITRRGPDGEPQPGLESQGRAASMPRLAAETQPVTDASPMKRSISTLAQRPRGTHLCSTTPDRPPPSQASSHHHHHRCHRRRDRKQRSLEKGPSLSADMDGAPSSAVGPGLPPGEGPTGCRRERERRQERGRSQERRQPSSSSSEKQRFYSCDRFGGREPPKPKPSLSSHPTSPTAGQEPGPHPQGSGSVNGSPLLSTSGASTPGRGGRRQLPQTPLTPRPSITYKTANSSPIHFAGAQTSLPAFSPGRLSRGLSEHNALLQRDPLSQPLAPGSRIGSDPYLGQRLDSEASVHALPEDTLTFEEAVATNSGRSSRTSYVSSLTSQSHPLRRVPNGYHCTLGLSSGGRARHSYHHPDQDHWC
T1 sequence (P54289 25-956 partner limits assumed): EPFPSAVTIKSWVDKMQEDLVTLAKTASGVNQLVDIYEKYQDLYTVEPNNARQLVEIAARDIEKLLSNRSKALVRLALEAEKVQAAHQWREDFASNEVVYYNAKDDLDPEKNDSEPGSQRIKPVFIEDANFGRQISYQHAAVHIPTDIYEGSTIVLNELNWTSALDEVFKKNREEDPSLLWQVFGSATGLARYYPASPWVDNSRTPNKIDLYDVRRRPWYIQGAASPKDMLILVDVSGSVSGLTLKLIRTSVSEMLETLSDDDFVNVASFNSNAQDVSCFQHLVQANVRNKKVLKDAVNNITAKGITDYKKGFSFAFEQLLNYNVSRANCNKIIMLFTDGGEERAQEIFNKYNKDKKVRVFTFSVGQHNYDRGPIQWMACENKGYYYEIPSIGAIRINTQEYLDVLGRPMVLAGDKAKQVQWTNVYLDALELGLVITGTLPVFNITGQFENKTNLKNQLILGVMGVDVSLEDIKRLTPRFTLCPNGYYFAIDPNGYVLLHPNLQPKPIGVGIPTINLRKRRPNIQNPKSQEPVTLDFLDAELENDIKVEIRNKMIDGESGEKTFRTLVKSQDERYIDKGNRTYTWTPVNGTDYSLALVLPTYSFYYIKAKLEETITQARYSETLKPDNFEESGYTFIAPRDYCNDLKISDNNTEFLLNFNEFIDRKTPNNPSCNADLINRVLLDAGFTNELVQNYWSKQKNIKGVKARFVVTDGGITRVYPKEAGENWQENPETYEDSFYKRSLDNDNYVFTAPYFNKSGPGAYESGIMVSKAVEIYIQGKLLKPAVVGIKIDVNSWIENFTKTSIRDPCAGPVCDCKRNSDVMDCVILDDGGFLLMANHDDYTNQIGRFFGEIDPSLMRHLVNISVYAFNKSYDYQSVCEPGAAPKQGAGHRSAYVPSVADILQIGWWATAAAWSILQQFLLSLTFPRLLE
T1 sequence (P54289 957-1103 partner limits assumed): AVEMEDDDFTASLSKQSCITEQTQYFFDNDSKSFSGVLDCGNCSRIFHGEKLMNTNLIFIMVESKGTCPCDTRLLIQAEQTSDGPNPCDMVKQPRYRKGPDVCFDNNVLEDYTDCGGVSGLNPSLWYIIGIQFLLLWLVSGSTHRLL
T1 sequence (P54284 whole entry partner): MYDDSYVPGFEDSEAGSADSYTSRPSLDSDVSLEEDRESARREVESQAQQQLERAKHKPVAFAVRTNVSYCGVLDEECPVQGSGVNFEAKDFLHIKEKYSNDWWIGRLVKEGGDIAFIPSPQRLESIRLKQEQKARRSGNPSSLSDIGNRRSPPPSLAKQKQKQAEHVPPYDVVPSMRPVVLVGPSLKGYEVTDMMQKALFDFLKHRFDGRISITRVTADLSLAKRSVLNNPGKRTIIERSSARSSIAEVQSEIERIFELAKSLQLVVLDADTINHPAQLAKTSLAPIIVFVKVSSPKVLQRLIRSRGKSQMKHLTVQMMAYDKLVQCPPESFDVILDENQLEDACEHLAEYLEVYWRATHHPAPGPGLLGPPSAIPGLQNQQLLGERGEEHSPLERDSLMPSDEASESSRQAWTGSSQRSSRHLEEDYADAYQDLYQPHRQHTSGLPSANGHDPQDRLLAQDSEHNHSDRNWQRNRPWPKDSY

With `CC(C)(C)NC(=O)[C@H](Cc1ccc(OCc2ccccc2)cc1)NC(=O)[C@H](Cc1ccncc1)NC1C=CCCC1` (stereo partly drawn) (as salt: HCl) [Example 2, [S-(R*,R*)]—N-[2-(4-Benzyloxy-phenyl)-1-tert-butylcarbamoyl-ethyl]-2-(cyclohex-2-enylamino)-3-pyridin-4-yl-propionamide], the melting point lay in the range of 163 to 164 °C.

Consider `CC(C)(C)NC(=O)[C@H](Cc1ccc(OCc2ccccc2)cc1)NC(=O)[C@H](Cc1cscn1)NC1C=CCCC1` (stereo partly drawn) (as salt: HCl) [Example 6, [S—(R*,R*)]—N-[2-(4-Benzyloxy-phenyl)-1-tert-butylcarbamoyl-ethyl]-2-(cyclohex-2-enylamino)-3-thiazol-4-yl-propionamide], for which the melting point is 243 to 244 °C. Still for that read-out and setting: as for `CC(C)(C)NC(=O)[C@H](Cc1ccc(OCc2ccccc2)cc1)NC(=O)[C@H](Cc1c[nH]cn1)NCC1CCCCC1` (as salt: salt) [Example 8, [S—(R*,R*)]—N-[2-(4-Benzyloxy-phenyl)-1-tert-butylcarbamoyl-ethyl]-2-(cyclohexylmethyl-amino)-3-(1H-imidazol-4-yl)-propionamide], the figure is 163 to 165 °C. On to `CC(C)(C)NC(=O)[C@H](Cc1ccc(OCc2ccccc2)cc1)NC(=O)[C@H](Cc1cscn1)NC1CCCCC1` (relative stereo) [Example 7, [S—(R*,R*)]-N-[2-(4-Benzyloxy-phenyl)-1-tert-butylcarbamoyl-ethyl]-2-cyclohexylamino-3-thiazol-4-yl-propionamide], for which the “IMR-32 % of Blockade @ μM” value on N-type Ca2+ channel (@ 1 μM) came to 67%; at N-type Ca2+ channel (@ 10 μM) it was 95%.

Turning to `CC(C)N[C@@H](Cc1c[nH]cn1)C(=O)N[C@@H](Cc1ccc(OCc2ccccc2)cc1)C(=O)NC(C)(C)C` (relative stereo) [Example 9, [S—(R*,R*)]N-[2-(4-Benzyloxy-phenyl)-1-tert-butylcarbamoyl-ethyl]-2-(1-methylethyl-amino)-3-(1H-imidazol-4-yl)-propionamide], the results for the “IMR-32 % of Blockade @ μM” value on N-type Ca2+ channel (@ 1 μM) and at N-type Ca2+ channel (@ 10 μM) were 11% and 55%, respectively. Turning to `CC(C)CCN[C@@H](Cc1cccnc1)C(=O)NC(Cc1ccc(OCc2ccccc2)cc1)C(=O)NC(C)(C)C` (stereo in doubt) [Example 3, [S-(R*,R*)]—N-[2-(4-Benzyloxy-phenyl)-1-tert-butylcarbamoyl-ethyl]-2-(3-methyl-butylamino)-3-pyridin-3-yl-propionamide], the “DBA/2 mice % protection (dose)” value in the data set with DBA/2 mice is on record as 80% @ 30 mg/kg. This compound also registered a half-maximal inhibitory concentration (IC50) at N-type Ca2+ channel of 770 nM. Turning to `CC(C)CCN[C@@H](Cc1cscn1)C(=O)NC(Cc1ccc(OCc2ccccc2)cc1)C(=O)NC(C)(C)C` (stereo in doubt) [Example 5, [S—(R*,R*)]—N-[2-(4-Benzyloxy-phenyl)-1-tert-butylcarbamoyl-ethyl]-2-(3-methyl-butylamino)-3-thiazol-4-yl-propionamide], the “DBA/2 mice % protection (dose)” value with DBA/2 mice worked out at 100% @ 30 mg/kg. Besides, the results for the “IMR-32 % of Blockade @ μM” value on N-type Ca2+ channel (@ 1 μM) and at N-type Ca2+ channel (@ 10 μM) were 79% and 97%, respectively.

The compound `CC(C)CCN[C@@H](Cc1ccncc1)C(=O)N[C@@H](Cc1ccc(OCc2ccccc2)cc1)C(=O)NC(C)(C)C` [Example 1, [S—(R*,R*)]—N-[2-(4-Benzyloxy-phenyl)-1-tert-butylcarbamoyl-ethyl]-2-(3-methyl-butylamino)-3-pyridin-4-yl-propionamide] displayed an IC50 against N-type Ca2+ channel of 400 nM. Still for that read-out and setting: as for `CC(C)(C)NC(=O)[C@H](Cc1ccc(OCc2ccccc2)cc1)NC(=O)[C@H](Cc1ccncc1)NC1C=CCCC1` (stereo partly drawn) [Example 2, [S-(R*,R*)]—N-[2-(4-Benzyloxy-phenyl)-1-tert-butylcarbamoyl-ethyl]-2-(cyclohex-2-enylamino)-3-pyridin-4-yl-propionamide], the figure is 1300 nM. Regarding `CC(C)(C)NC(=O)[C@H](Cc1ccc(OCc2ccccc2)cc1)NC(=O)[C@H](Cc1cccnc1)NC1C=CCCC1` (stereo partly drawn) [Example 4, [S—(R*,R*)]—N-[2-(4-Benzyloxy-phenyl)-1-tert-butylcarbamoyl-ethyl]-2-(cyclohex-2-enylamino)-3-pyridin-3-yl-propionamide], the “DBA/2 mice % protection (dose)” value in the data set with DBA/2 mice is 60% @ 30 mg/kg. The same compound displayed an IC50 at N-type Ca2+ channel of 1000 nM. Consider `CC(C)(C)NC(=O)[C@H](Cc1ccc(OCc2ccccc2)cc1)NC(=O)[C@H](Cc1cscn1)NC1C=CCCC1` (stereo partly drawn) [Example 6, [S—(R*,R*)]—N-[2-(4-Benzyloxy-phenyl)-1-tert-butylcarbamoyl-ethyl]-2-(cyclohex-2-enylamino)-3-thiazol-4-yl-propionamide], for which the midpoint of inhibition at N-type Ca2+ channel, the IC50, lay at 1100 nM. Still for that read-out and setting: as for `CC(C)(C)NC(=O)[C@H](Cc1ccc(OCc2ccccc2)cc1)NC(=O)[C@H](Cc1c[nH]cn1)NCC1CCCCC1` [Example 8, [S—(R*,R*)]—N-[2-(4-Benzyloxy-phenyl)-1-tert-butylcarbamoyl-ethyl]-2-(cyclohexylmethyl-amino)-3-(1H-imidazol-4-yl)-propionamide], the figure is 670 nM.
